Source: US20150274664A1 (MERCK SHARP & DOHME CORP., priority 2012, published 2015)

Target: T1, human GPR119 (Homo sapiens, UniProt Q8TDV5)
T1 construct: expressed in transfected cells; host or cells: HEK293
T1 sequence (Q8TDV5 1-335): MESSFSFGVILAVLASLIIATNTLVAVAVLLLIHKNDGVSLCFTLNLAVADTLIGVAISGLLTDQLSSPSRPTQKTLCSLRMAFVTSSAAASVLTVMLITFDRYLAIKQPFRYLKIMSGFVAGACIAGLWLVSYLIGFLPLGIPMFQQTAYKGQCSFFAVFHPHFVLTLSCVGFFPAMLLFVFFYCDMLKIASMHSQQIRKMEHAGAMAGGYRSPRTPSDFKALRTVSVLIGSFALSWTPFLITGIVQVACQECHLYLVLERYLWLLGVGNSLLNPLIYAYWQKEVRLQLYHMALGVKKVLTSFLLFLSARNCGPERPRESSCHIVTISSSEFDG
Experiment: Measurement of GPR119 signaling using LANCE 384-well cAMP kit (LCMP assay)
Assay type: cell-based
Conditions: HEK293 cells stably transfected with human GPR119
Experimental: Measurement of GPR119 Signaling Using LANCE 384-Well cAMP Kit (LCMP Assay)
Human embryonic kidney (HEK) 293 cell lines stably transfected with human GPR119 were maintained in DMEM media containing FBS, penicillin-streptomycin, HEPES, and hygromycin. For the cAMP assay, the transfected cells were harvested using a non-enzymatic cell dissociation solution (GIBCO 2672), pelleted and resuspended in stimulation buffer (DMEM, 25 mM Hepes, 0.1% BSA, pH 7.4 in the presence of 100 μM phosphodiesterase inhibitors). The adenylate cyclase assay was constructed following the LANCE™ cAMP Kit (Perkin Elmer, AD0264) instructions. Briefly, cells with Alexa Fluor® 647-anti cAMP antibody were incubated with 10 point series diluted test article in stimulation buffer with a final concentration of 2.5% DMSO for 45 minutes. The reaction was stopped by incubating with the supplied detection buffer containing the europium chelate of the Eu-SA/Biotin-cAMP tracer for 3 hours. The assay was performed in duplicate in a 384 well plate for duplicate plates. Fluorescence at 665 nm was measured using a PHERAstar instrument. Basal activity was determined using a DMSO control and maximum response was defined as cAMP stimulation produced by an internal agonist control. Standard cAMP concentrations were assayed concurrently for conversion of fluorescence signal to cAMP level. The data was analyzed using 4-parameter curve fit in Microsoft Excel.

Row | Compound | EC50
1 | CS(=O)(=O)c1ccc(COC[C@H]2C[C@@H]2C2CCN(c3ncc(Cl)cn3)CC2)c(F)c1 [Example 4] | 1.6 nM
2 | CCc1cnc(N2CCC([C@H]3C[C@@H]3COCc3ccc(S(C)(=O)=O)cc3F)CC2)nc1 [Example 8, 5-ethyl-2-(4-((1R,2S)-2-(((2-fluoro-4-(methylsulfonyl)benzyl)oxy)methyl)cyclopropyl)piperidin-1-yl)pyrimidine] | 1.3 nM
3 | CCc1cnc(N2CCC([C@H]3C[C@@H]3COCc3ccc(S(=O)(=O)CC)cc3)CC2)nc1 [Example 9, 5-ethyl-2-(4-((1R,2S)-2-(((4-(ethylsulfonyl)benzyl)oxy)methyl)cyclopropyl)piperidin-1-yl)pyrimidine] | 22 nM
4 | COCc1cnc(N2CCC([C@H]3C[C@@H]3COCc3ccc(S(C)(=O)=O)cc3F)CC2)nc1 [Example 11, 2-(4-((1R,2S)-2-(((2-fluoro-4-(methylsulfonyl)benzyl)oxy)methyl)cyclopropyl)piperidin-1-yl)-5-(methoxymethyl)pyrimidine] | 7.1 nM
5 | COCc1cnc(N2CCC([C@H]3C[C@@H]3COCc3ccc(S(C)(=O)=O)cc3)CC2)nc1 [Example 12, 5-(methoxymethyl)-2-(4-((1R,2S)-2-(((4-(methylsulfonyl)benzyl)oxy)methyl)cyclopropyl)piperidin-1-yl)pyrimidine] | 14 nM
6 | CCS(=O)(=O)c1ccc(COC[C@H]2C[C@@H]2C2CCN(c3ncc(COC)cn3)CC2)cc1 [Example 13, 2-(4-((1R,2S)-2-(((4-(ethylsulfonyl)benzyl)oxy)methyl)cyclopropyl)piperidin-1-yl)-5-(methoxymethyl)pyrimidine] | 24 nM
7 | CC1(OC(=O)N2CCC([C@H]3C[C@@H]3COCc3ccc(S(C)(=O)=O)cc3F)CC2)CC1 [Example 14, 1-methylcyclopropyl 4-((1R,2S)-2-((2-fluoro-4-(methylsulfonyl)benzyloxy)methyl)cyclopropyl)piperidine-1-carboxylate] | 8.8 nM
8 | CC1(OC(=O)N2CCC([C@H]3C[C@@H]3COCc3ccc(CC(=O)N4CCC4)cc3F)CC2)CC1 [Example 23, 1-methylcyclopropyl 4-((1R,2S)-2-((4-(2-(azetidin-1-yl)-2-oxoethyl)-2-fluorobenzyloxy)methyl)cyclopropyl)piperidine-1-carboxylate] | 13 nM
9 | CS(=O)(=O)c1ccc(OCC[C@@H]2C[C@H]2C2CCN(c3ncc(Cl)cn3)CC2)cc1F [Example 24, 5-chloro-2-(4-((1S,2S)-2-(2-(3-fluoro-4-(methylsulfonyl)phenoxy)ethyl)cyclopropyl)piperidin-1-yl)pyrimidine] | 8.3 nM
10 | CS(=O)(=O)c1ccc(OCC[C@H]2C[C@@H]2C2CCN(c3ncc(Cl)cn3)CC2)cc1F [Example 25, 5-chloro-2-(4-((1R,2R)-2-(2-(3-fluoro-4-(methylsulfonyl)phenoxy)ethyl)cyclopropyl)piperidin-1-yl)pyrimidine] | 4.1 nM
11 | CCc1cnc(N2CCC([C@@H]3C[C@H]3CCOc3ccc(S(C)(=O)=O)cc3F)CC2)nc1 [Example 26, 5-ethyl-2-(4-((1S,2S)-2-(2-(2-fluoro-4-(methylsulfonyl)phenoxy)ethyl)cyclopropyl)piperidin-1-yl)pyrimidine] | 9.4 nM
12 | CCc1cnc(N2CCC([C@H]3C[C@@H]3CCOc3ccc(S(C)(=O)=O)c(F)c3)CC2)nc1 [Example 27, 5-ethyl-2-(4-((1R,2R)-2-(2-(3-fluoro-4-(methylsulfonyl)phenoxy)ethyl)cyclopropyl)piperidin-1-yl)pyrimidine] | 5.5 nM
13 | CCc1cnc(N2CCC([C@H]3C[C@@H]3CCOc3ccc(S(C)(=O)=O)cc3F)CC2)nc1 [Example 28, 5-ethyl-2-(4-((1R,2R)-2-(2-(2-fluoro-4-(methylsulfonyl)phenoxy)ethyl)cyclopropyl)piperidin-1-yl)pyrimidine] | 8.8 nM
14 | CS(=O)(=O)c1ccc(OCC[C@@H]2C[C@H]2C2CCN(c3ncc(Cl)cn3)CC2)c(F)c1 [Example 29, 5-chloro-2-(4-((1S,2S)-2-(2-(2-fluoro-4-(methylsulfonyl)phenoxy)ethyl)cyclopropyl)piperidin-1-yl)pyrimidine] | 17 nM
15 | CS(=O)(=O)c1ccc(OCC[C@H]2C[C@@H]2C2CCN(c3ncc(Cl)cn3)CC2)c(F)c1 [Example 30, 5-chloro-2-(4-((1R,2R)-2-(2-(2-fluoro-4-(methylsulfonyl)phenoxy)ethyl)cyclopropyl)piperidin-1-yl)pyrimidine] | 23 nM
16 | CCc1cnc(N2CCC([C@@H]3C[C@H]3CCOc3ccc(S(C)(=O)=O)c(F)c3)CC2)nc1 [Example 31, 5-ethyl-2-(4-((1S,2S)-2-(2-(3-fluoro-4-(methylsulfonyl)phenoxy)ethyl)cyclopropyl)piperidin-1-yl)pyrimidine] | 16 nM
17 | CCc1cnc(N2CCC([C@@H]3C[C@H]3CCOc3ccc(S(=O)(=O)CC)cc3F)CC2)nc1 [Example 32, 5-ethyl-2-(4-((1S,2S)-2-(2-(4-(ethylsulfonyl)-2-fluorophenoxy)ethyl)cyclopropyl)piperidin-1-yl)pyrimidine] | 18 nM
18 | COCc1cnc(N2CCC([C@H]3C[C@@H]3CCOc3ccc(S(C)(=O)=O)c(F)c3)CC2)nc1 [Example 33, 2-(4-((1R,2R)-2-(2-(3-fluoro-4-(methylsulfonyl)phenoxy)ethyl)cyclopropyl)piperidin-1-yl)-5-(methoxymethyl)pyrimidine] | 15 nM
19 | O=C(Cc1ccc(OCC[C@H]2C[C@@H]2C2CCN(c3ncc(Cl)cn3)CC2)cc1F)N1CCC1 [Example 34, 1-(azetidin-1-yl)-2-(4-(2-((1R,2R)-2-(1-(5-chloropyrimidin-2-yl)piperidin-4-yl)cyclopropyl)ethoxy)-2-fluorophenyl)ethanone] | 0.64 nM
20 | O=C(Cc1ccc(OCC[C@H]2C[C@@H]2C2CCN(c3ncc(Cl)cn3)CC2)c(F)c1)N1CCC1 [Example 35, 1-(azetidin-1-yl)-2-(4-(2-((1R,2R)-2-(1-(5-chloropyrimidin-2-yl)piperidin-4-yl)cyclopropyl)ethoxy)-3-fluorophenyl)ethanone] | 4.6 nM
21 | CCc1cnc(N2CCC([C@@H]3C[C@H]3CCOc3ccc(CC(=O)N4CCC4)c(F)c3)CC2)nc1 [Example 36, 1-(azetidin-1-yl)-2-(4-(2-((1S,2S)-2-(1-(5-ethylpyrimidin-2-yl)piperidin-4-yl)cyclopropyl)ethoxy)-2-fluorophenyl)ethanone] | 5.5 nM
22 | Fc1cc(OCC[C@H]2C[C@@H]2C2CCN(c3ncc(Cl)cn3)CC2)ccc1-n1cnnn1 [Example 37, 5-chloro-2-(4-((1R,2R)-2-(2-(3-fluoro-4-(1H-tetrazol-1-yl)phenoxy)ethyl)cyclopropyl)piperidin-1-yl)pyrimidine] | 6.8 nM
23 | CCc1cnc(N2CCC([C@H]3C[C@@H]3CCOc3ccc(-n4cnnn4)c(F)c3)CC2)nc1 [Example 38, 5-ethyl-2-(4-((1R,2R)-2-(2-(3-fluoro-4-(1H-tetrazol-1-yl)phenoxy)ethyl)cyclopropyl)piperidin-1-yl)pyrimidine] | 5.3 nM
24 | CCc1cnc(N2CCC([C@@H]3C[C@H]3CCOc3ccc(-n4cnnn4)c(F)c3)CC2)nc1 [Example 39, 5-ethyl-2-(4-((1S,2S)-2-(2-(3-fluoro-4-(1H-tetrazol-1-yl)phenoxy)ethyl)cyclopropyl)piperidin-1-yl)pyrimidine] | 8.7 nM
